What all share (type): functional
Assay [1] concerns Escherichia coli. Put plainly: Antibacterial activity against Escherichia coli assessed as inhibition of bacterial growth incubated for 18 hrs by CLSI protocol based method.
The test system of assay [2] is Pseudomonas aeruginosa. The experiment in a line: Antibacterial activity against Pseudomonas aeruginosa assessed as inhibition of bacterial growth incubated for 18 hrs by CLSI protocol based method.
The subject of assay [3] is Staphylococcus aureus. The experiment in a line: Antibacterial activity against Staphylococcus aureus NCIM 5257 assessed as inhibition of bacterial growth incubated for 24 hrs by serial broth dilution method. (Broth dilution looks for growth in wells or tubes with falling amounts of substance.)
For assay [4], the system named is Bacillus subtilis. Put plainly: Antibacterial activity against Bacillus subtilis NCIM 2097 assessed as inhibition of bacterial growth incubated for 24 hrs by serial broth dilution method.
The subject of assay [5] is Enterococcus faecalis. The experiment in a line: Antibacterial activity against Streptococcus faecalis NCIM 2080 assessed as inhibition of bacterial growth incubated for 24 hrs by serial dilution method.
The subject of assay [6] is Escherichia coli. Put plainly: Antibacterial activity against Escherichia coli NCIM 2065 assessed as inhibition of bacterial growth incubated for 24 hrs by serial dilution method.
A further assay concerns Klebsiella pneumoniae. Put plainly: Antibacterial activity against Klebsiella pneumoniae NCIM 5289 assessed as inhibition of bacterial growth incubated for 24 hrs by serial dilution method.
In assay [7] the test system is Pseudomonas aeruginosa. The experiment in a line: Antibacterial activity against Pseudomonas aeruginosa NCIM 5210 assessed as inhibition of bacterial growth incubated for 24 hrs by serial dilution method.
Assay [8] has as its system Candida albicans. The experiment in a line: Antifungal activity against Candida albicans NCIM 3628 assessed as inhibition of fungal growth incubated for 48 hrs by serial dilution method.
The next assay relates to Aspergillus niger. The experiment in a line: Antifungal activity against Aspergillus niger NCIM 1317 assessed as inhibition of fungal growth incubated for 48 hrs by serial dilution method.
For another assay, the system named is Fusarium oxysporum. The experiment in a line: Antimicrobial activity against Fusarium oxysporum assessed as inhibition zone at 200 ug/ml incubated for 24 hrs by disk diffusion method. As to conditions: read-out: IZ. For orientation: Agar diffusion results depend on both activity and mobility in agar.
Assay [9] relates to Staphylococcus aureus. The experiment in a line: Antibacterial activity against linezolid and methicillin-resistant Staphylococcus aureus assessed as inhibition of bacterial growth.
In a further assay the test system is Enterococcus. Put plainly: Antibacterial activity against linezolid and vancomycin-resistant Enterococcus assessed as inhibition of bacterial growth.
Assay [10] concerns Escherichia coli. Put plainly: Antibacterial activity against Escherichia coli assessed as zone of inhibition at 100 ug/ml. As to conditions: read-out: IZ.
Assay [11] concerns Bacillus subtilis. The experiment in a line: Antibacterial activity against Bacillus subtilis assessed as zone of inhibition at 100 ug/ml. As to conditions: read-out: IZ.
Assay [12] concerns Pseudomonas aeruginosa. Put plainly: Antibacterial activity against Pseudomonas aeruginosa assessed as inhibition of bacterial growth by CLSI protocol based microdilution assay.
Another assay concerns Listeria monocytogenes. The experiment in a line: Antibacterial activity against Listeria monocytogenes assessed as inhibition of bacterial growth by CLSI protocol based microdilution assay.
Assay [13] concerns Staphylococcus aureus. Put plainly: Antibacterial activity against Staphylococcus aureus assessed as inhibition of bacterial growth by CLSI protocol based microdilution assay.
Assay [14] has as its system Enterococcus faecalis. Put plainly: Antibacterial activity against Enterococcus faecalis ATCC 51299 assessed as inhibition of bacterial growth by CLSI protocol based microdilution assay.
Assay [15] has as its system Enterococcus faecalis. The experiment in a line: Antibacterial activity against Enterococcus faecalis ATCC 29212 assessed as inhibition of bacterial growth by CLSI protocol based microdilution assay.
Assay [16] relates to Bacillus subtilis. The experiment in a line: Antibacterial activity against Bacillus subtilis assessed as inhibition of bacterial growth measured per 100 uL incubated for 24 hrs by agar well diffusion method.
Assay [17] concerns Staphylococcus aureus. Put plainly: Antibacterial activity against Staphylococcus aureus assessed as inhibition of bacterial growth measured per 100 uL incubated for 24 hrs by agar well diffusion method.
Assay [18] has as its system Escherichia coli. Put plainly: Antibacterial activity against Escherichia coli assessed as inhibition of bacterial growth measured per 100 uL incubated for 24 hrs by agar well diffusion method.
The subject of assay [19] is Pseudomonas aeruginosa. Put plainly: Antibacterial activity against Pseudomonas aeruginosa assessed as inhibition of bacterial growth measured per 100 uL incubated for 24 hrs by agar well diffusion method.
The subject of assay [20] is Candida albicans. The experiment in a line: Antifungal activity against Candida albicans assessed as inhibition of fungal growth incubated measured per 100 uL incubated for 24 hrs by agar well diffusion method.
The test system of another assay is Saccharomyces cerevisiae. The experiment in a line: Antifungal activity against Saccharomyces cerevisiae assessed as inhibition of fungal growth incubated measured per 100 uL incubated for 24 hrs by agar well diffusion method.

This passage reports MIC and zone of inhibition results from ChEMBL document CHEMBL5233274, “Current Landscape and Future Perspective of Oxazolidinone Scaffolds Containing Antibacterial Drugs” (J Med Chem, 2021).

Each structure is given as a SMILES string. In brackets after ≈: the same amount, converted by molar mass.

In the case of `CS(=O)(=O)CCOc1ccc(C#Cc2ccc(N3C[C@@H](C(=O)NO)OC3=O)cc2)cc1`, the MIC in the assay on Escherichia coli [1] is 50 µg/mL (≈ 112 µM); in the assay on Pseudomonas aeruginosa [2], greater than 10 µg/mL.

With `O=C(/C=C/c1cccc(F)c1)c1ccc(-c2ccc(N3C[C@H](CO)OC3=O)cc2)cc1`, the MIC in the assay on Staphylococcus aureus [3], in the assay with Bacillus subtilis [4], with Enterococcus faecalis [5], in the assay with Escherichia coli [6], in the assay on Klebsiella pneumoniae and in the assay on Pseudomonas aeruginosa [7] was 3.12 µg/mL (≈ 7.49 µM) in each case. The MIC in the assay on Candida albicans [8] and in the assay on Aspergillus niger was 12.5 µg/mL (≈ 29.9 µM) throughout.

Turning to `OC(Cn1cncn1)(Cn1cncn1)c1ccc(F)cc1F` [FLUCONAZOLE], the zone of inhibition at 200 µg/mL with Fusarium oxysporum was determined as 23 mm.

As for `O=C(CCl)NC[C@H]1CN(c2ccc(N3CCOCC3)c(F)c2)C(=O)O1`, the MIC in the assay on Staphylococcus aureus [9] and in the assay on Enterococcus was 0.13 µg/mL (≈ 0.35 µM) throughout.

With `CS(=O)(=O)CCCOc1ccc(C#Cc2ccc(N3C[C@@H](C(=O)NO)OC3=O)cc2)cc1`, the MIC in the assay with Escherichia coli [1] was 6.25 µg/mL (≈ 13.6 µM); in the assay on Pseudomonas aeruginosa [2], greater than 10 µg/mL.

Turning to `O=C(N[C@H](CO)[C@H](O)c1ccc([N+](=O)[O-])cc1)C(Cl)Cl` [CHLORAMPHENICOL], the zone of inhibition at 100 µg/mL with Escherichia coli [10] worked out at 38 mm; in the assay with Bacillus subtilis [11], 37 mm. The MIC with Pseudomonas aeruginosa [12], with Listeria monocytogenes, with Staphylococcus aureus [13], in the assay on Enterococcus faecalis [14] and in the assay on Enterococcus faecalis [15] was 50 µg/mL (≈ 155 µM) each time.

Consider `O=C(/C=C/c1ccccc1F)c1ccc(-c2ccc(N3C[C@H](CO)OC3=O)cc2)cc1`, for which the MIC in the assay on Staphylococcus aureus [3], in the assay on Bacillus subtilis [4], in the assay with Enterococcus faecalis [5], in the assay with Escherichia coli [6], in the assay with Klebsiella pneumoniae and in the assay with Pseudomonas aeruginosa [7] was 3.12 µg/mL (≈ 7.49 µM) each time. In addition, the MIC in the assay on Candida albicans [8] and in the assay with Aspergillus niger was 12.5 µg/mL (≈ 29.9 µM) each time.

For `Nc1ccc(C#CC#Cc2ccc(N3C[C@@H](C(=O)NO)OC3=O)cc2)cc1`, the MIC was 0.02 µg/mL (≈ 0.0553 µM) in the assay with Escherichia coli [1] and greater than 10 µg/mL in the assay with Pseudomonas aeruginosa [2].

Regarding `O=C1NC(Cc2ccc(Nc3nc(-c4ccc(F)cc4)cs3)cc2)CO1` (configuration not stated), the MIC in the assay with Bacillus subtilis [16], in the assay with Staphylococcus aureus [17], in the assay on Escherichia coli [18], in the assay on Pseudomonas aeruginosa [19], with Candida albicans [20] and in the assay with Saccharomyces cerevisiae was 12.5 µg in each case.

In the case of `O=C(NO)[C@@H]1CN(c2ccc(C#CC#CC3CCCC3)cc2)C(=O)O1`, the MIC in the assay on Escherichia coli [1] was 0.015 µg/mL (≈ 0.0443 µM); in the assay with Pseudomonas aeruginosa [2], greater than 10 µg/mL.

Take `CCCN1C(=O)C(N2C(=O)OCC2Cc2ccc(/N=C/c3ccccc3)cc2)C1c1ccc(OC)cc1OC` (configuration not stated): the zone of inhibition at 100 µg/mL in the assay with Bacillus subtilis [11] stood at 23 mm.

Take `O=C1NC(Cc2ccc(Nc3nc(-c4cccc(Cl)c4)cs3)cc2)CO1` (configuration not stated): the MIC with Bacillus subtilis [16], in the assay on Staphylococcus aureus [17], in the assay with Escherichia coli [18], in the assay on Pseudomonas aeruginosa [19], with Candida albicans [20] and in the assay on Saccharomyces cerevisiae was 12.5 µg in each case.

As for `O=C(NC[C@H]1CN(c2ccc(N3CCOCC3)c(F)c2)C(=O)O1)C(Cl)Cl`, the MIC with Staphylococcus aureus [9] and with Enterococcus was 0.25 µg/mL (≈ 0.615 µM) each time.

For the compound `O=C(/C=C/c1ccc(F)cc1)c1ccc(-c2ccc(N3C[C@H](CO)OC3=O)cc2)cc1`, the MIC with Staphylococcus aureus [3], in the assay with Bacillus subtilis [4], in the assay with Enterococcus faecalis [5], in the assay with Escherichia coli [6], with Klebsiella pneumoniae and with Pseudomonas aeruginosa [7] was 3.12 µg/mL (≈ 7.49 µM) in each case. Besides, the MIC with Candida albicans [8] and in the assay with Aspergillus niger was 12.5 µg/mL (≈ 29.9 µM) in each case.

Take `O=C1N[C@@H](Cc2ccc(NC(=S)Nc3ccc(Br)cc3)cc2)CO1`: the MIC in the assay on Listeria monocytogenes, with Staphylococcus aureus [13], with Enterococcus faecalis [14] and in the assay on Enterococcus faecalis [15] was 25 µg/mL (≈ 61.5 µM) throughout.

For the compound `O=C1NC(Cc2ccc(Nc3nc(-c4ccc5ccccc5c4)cs3)cc2)CO1` (configuration not stated), the MIC in the assay on Bacillus subtilis [16] amounted to 25 µg; with Staphylococcus aureus [17] it was 6.25 µg; with Escherichia coli [18], 12.5 µg; in the assay with Pseudomonas aeruginosa [19], 12.5 µg; with Candida albicans [20], 12.5 µg; in the assay with Saccharomyces cerevisiae, 12.5 µg.
